Measurements from ChEMBL document CHEMBL1148524, “Novel and selective alpha(v)beta3 receptor peptide antagonist: design, synthesis, and biological behavior” (J Med Chem, 2006).

Biological target: Integrin alpha-V/beta-3 (Homo sapiens, UniProt P05106+P06756)
Assay: Inhibition of adhesion of K562 cells expressing alphaVbeta3 integrin receptor to vitronectin
Format: cell-based

Chain of Integrin alpha-V/beta-3 (P05106 27-788 limits assumed): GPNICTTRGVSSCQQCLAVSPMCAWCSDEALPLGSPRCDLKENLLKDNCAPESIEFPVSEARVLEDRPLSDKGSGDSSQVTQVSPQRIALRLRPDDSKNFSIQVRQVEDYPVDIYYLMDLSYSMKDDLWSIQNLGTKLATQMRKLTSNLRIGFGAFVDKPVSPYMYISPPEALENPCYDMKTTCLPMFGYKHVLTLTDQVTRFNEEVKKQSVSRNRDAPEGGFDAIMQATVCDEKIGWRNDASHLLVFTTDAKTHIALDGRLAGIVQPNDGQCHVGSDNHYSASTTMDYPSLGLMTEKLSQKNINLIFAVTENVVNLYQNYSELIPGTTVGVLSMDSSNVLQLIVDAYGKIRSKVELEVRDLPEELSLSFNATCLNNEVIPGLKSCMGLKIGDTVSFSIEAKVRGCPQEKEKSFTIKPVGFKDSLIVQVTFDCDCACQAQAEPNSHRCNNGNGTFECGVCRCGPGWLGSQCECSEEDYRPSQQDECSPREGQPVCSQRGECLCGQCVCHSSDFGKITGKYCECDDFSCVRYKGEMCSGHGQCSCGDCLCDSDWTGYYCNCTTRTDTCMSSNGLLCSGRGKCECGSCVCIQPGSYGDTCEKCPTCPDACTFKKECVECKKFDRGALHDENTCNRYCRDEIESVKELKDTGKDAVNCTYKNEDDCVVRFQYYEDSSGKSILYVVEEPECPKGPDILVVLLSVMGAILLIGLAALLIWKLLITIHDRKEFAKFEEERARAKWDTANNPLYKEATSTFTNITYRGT
Chain of Integrin alpha-V/beta-3 (P06756 31-889 limits assumed): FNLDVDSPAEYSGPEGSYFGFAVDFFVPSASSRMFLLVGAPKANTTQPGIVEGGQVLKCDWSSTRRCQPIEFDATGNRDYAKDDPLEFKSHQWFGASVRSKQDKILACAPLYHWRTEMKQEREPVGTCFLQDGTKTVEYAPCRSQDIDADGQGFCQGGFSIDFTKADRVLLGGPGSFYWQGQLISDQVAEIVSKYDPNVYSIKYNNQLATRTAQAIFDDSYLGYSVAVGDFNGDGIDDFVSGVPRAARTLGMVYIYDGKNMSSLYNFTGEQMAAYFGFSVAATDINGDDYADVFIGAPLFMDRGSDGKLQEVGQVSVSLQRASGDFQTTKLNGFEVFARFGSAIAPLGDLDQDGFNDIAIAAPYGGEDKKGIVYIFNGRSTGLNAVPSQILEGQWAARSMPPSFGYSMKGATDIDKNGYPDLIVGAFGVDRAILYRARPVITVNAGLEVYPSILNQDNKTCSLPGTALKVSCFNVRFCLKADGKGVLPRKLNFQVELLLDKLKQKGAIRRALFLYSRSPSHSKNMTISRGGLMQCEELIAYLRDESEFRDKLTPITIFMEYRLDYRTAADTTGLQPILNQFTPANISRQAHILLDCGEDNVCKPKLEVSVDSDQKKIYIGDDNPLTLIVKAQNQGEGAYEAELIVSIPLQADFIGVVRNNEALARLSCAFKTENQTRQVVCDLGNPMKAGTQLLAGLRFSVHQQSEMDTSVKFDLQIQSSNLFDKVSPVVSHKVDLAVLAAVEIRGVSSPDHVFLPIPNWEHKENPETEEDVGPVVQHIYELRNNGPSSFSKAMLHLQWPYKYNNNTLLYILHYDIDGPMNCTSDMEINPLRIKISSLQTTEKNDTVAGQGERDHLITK
Chain of Integrin alpha-V/beta-3 (P06756 891-1048 limits assumed): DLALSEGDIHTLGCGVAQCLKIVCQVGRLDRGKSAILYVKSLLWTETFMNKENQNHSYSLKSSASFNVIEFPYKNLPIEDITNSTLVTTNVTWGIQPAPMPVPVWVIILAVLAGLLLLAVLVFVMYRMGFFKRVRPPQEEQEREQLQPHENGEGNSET

CSCC[C@H](NC(=O)CC[C@H]1NC(=O)[C@H](CC(=O)O)NC(=O)CNC(=O)[C@H](CCCN=C(N)N)NC(=O)[C@H](CCCCN)NC1=O)C(=O)N[C@@H](CC(=O)O)C(=O)N[C@@H](CC(=O)O)C(=O)N1CCC[C@H]1C(=O)NCC(=O)/N=C(\N)NCCC[C@H](N)C(=O)N[C@@H](CC(N)=O)C(=O)N1CCC[C@H]1C(=O)N[C@@H](Cc1c[nH]cn1)C(=O)N[C@@H](CCCCN)C(=O)NCC(=O)N1CCC[C@H]1C(=O)N[C@@H](C)C(=O)N[C@H](C(=O)O)[C@@H](C)O
IC50: 880 nM
